Assay results as given in ChEMBL document CHEMBL1201862, “PubChem BioAssay data set” (2004).
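Assay format: 96-well plates, 48-hour exposure. The concentration for 50% growth inhibition is given as GI50.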 Activity calls are given as the source filed them. Rule as the data show it: active = GI50 up to about 1.1 µM and inactive = higher.

How the values were obtained:
Test in all cases: NCI-60 cell line screen, 48 h
[1] = system: 786-0
[2] = system: A549
[3] = system: BT-549
[4] = system: EKVX
[5] = system: IGROV-1
[6] = system: K562
[7] = system: KM12
[8] = system: M14
[9] = system: MCF7
[10] = system: MOLT-4
[11] = system: Malme-3M
[12] = system: NCI-H460
[13] = system: NCI/ADR-RES
[14] = system: OVCAR-8
[15] = system: SK-OV-3
[16] = system: SN12C
[17] = system: SNB-19
[18] = system: SNB-75
[19] = system: SW-620
[20] = system: U-251

Measured: GI50

O=c1[nH]c(=S)[nH]c(-c2ccccc2)c1Cc1c(O)ccc2ccccc12 [CAMBINOL]
inactive: [1] 34.9 µM | [2] 32.2 µM | [3] 27.1 µM | [4] 26.1 µM | [5] 33.7 µM | [6] 31.3 µM | [7] 30.6 µM | [8] 27.9 µM | [9] 33 µM | [10] 26.1 µM | [11] 7.98 µM | [12] 48.2 µM | [13] 33.5 µM | [14] 38 µM | [15] 46.1 µM | [16] 32.7 µM | [17] 37.2 µM | [18] 25.6 µM | [19] 42.8 µM | [20] 36.1 µM

COc1cc(-c2oc3c(OC)c(O)cc(O)c3c(=O)c2OC)ccc1O
inactive: [1] 16.9 µM | [2] 7.29 µM | [3] 5.18 µM | [4] 21.8 µM | [5] 3.09 µM | [6] 5.12 µM | [7] 10 µM | [8] 4.12 µM | [9] 19.7 µM | [10] 4.92 µM | [11] > 47.8 µM | [12] 6.95 µM | [13] 10.8 µM | [14] 8.17 µM | [15] 1.55 µM | [16] 13.1 µM | [17] 41.4 µM | [18] 4.02 µM | [19] 13.8 µM | [20] 3.66 µM

CCOC(=O)c1cnccc1CC1(C#N)c2ccccc2C=CN1C(=O)c1ccccc1 (stereo not given)
inactive: [1] 29.7 µM | [2] 34.4 µM | [3] 51.6 µM | [4] 36.5 µM | [5] 17.3 µM | [6] 6.93 µM | [7] 13.3 µM | [8] 24.3 µM | [9] 39.2 µM | [10] 15.5 µM | [11] 6.17 µM | [12] 23.4 µM | [13] 27.7 µM | [14] 16.2 µM | [15] 26.1 µM | [16] 29 µM | [17] 70 µM | [18] 12.9 µM | [19] 47.3 µM | [20] 37.3 µM

CCCCCCCCCCCCCCCCCCNc1nc(=O)n(C2CC(O)C(COP(=O)(O)O)O2)cc1F (stereo not given)
inactive: [1] 45.2 µM | [2] 17.4 µM | [3] > 100 µM | [4] 99.5 µM | [5] > 74.8 µM | [6] > 100 µM | [7] > 72.8 µM | [8] > 100 µM | [9] 16.9 µM | [10] 36 µM | [11] > 100 µM | [12] 35.5 µM | [13] > 35.6 µM | [14] 27.4 µM | [15] > 100 µM | [16] > 95.7 µM | [17] > 100 µM | [18] > 100 µM | [19] > 100 µM | [20] > 100 µM

CC(=O)N1CCN(C23OC4(N5CCN(C(C)=O)CC5)C5C6CC(C7C6C4C72)C53)CC1 (stereo not given)
inactive: [1] > 100 µM | [2] > 100 µM | [3] > 100 µM | [4] > 100 µM | [5] > 100 µM | [6] > 100 µM | [7] > 100 µM | [8] > 100 µM | [9] > 100 µM | [10] > 100 µM | [11] > 100 µM | [12] > 100 µM | [13] > 100 µM | [14] > 100 µM | [15] > 100 µM | [16] > 100 µM | [17] > 100 µM | [18] > 100 µM | [19] > 100 µM | [20] > 100 µM
